Values of other authors in US10545073B2, “Method and instrument for extracting a component from a sample” (priority 2016, dated 2020).

Structure (SMILES)	log P
CNC(=C[N+](=O)[O-])NCCSCc1ccc(CN(C)C)o1 [Ranitidine]	1.23
CC(C)(C)NCC(O)c1ccc(O)c(CO)c1 (stereo not shown) [Salbutamol]	0.01
CN[C@H]1CC[C@@H](c2ccc(Cl)c(Cl)c2)c2ccccc21 [Sertraline]	4.81
Fc1ccc([C@@H]2CCNC[C@H]2COc2ccc3c(c2)OCO3)cc1 [Paroxetine]	3.89
